PMC5787524, “Discovery of a FLT3 inhibitor LDD1937 as an anti-leukemic agent for acute myeloid leukemia” (Oncotarget, 2017)
“Also recorded” adds a separate entry of the source. Where two headings read alike, the source gives them in different places.

Key:
MV-4-11 cells [1] = assay: TUNEL assay; type: cell-based, human; conditions: 100 nM, 24 h
Description: For the terminal deoxynucleotidyl transferase dUTP nick end labeling (TUNEL) assay, the APO-DIRECT Kit (BD Biosciences, San Diego, CA, USA) was used. Briefly, 2 × 10^6 cells were harvested and fixed in 2% formaldehyde/PBS solution for 30 min. on ice. The fixed cells were washed twice with PBS and stored in 1 ml of 70 % ethanol at –20°C until use. After washing with wash buffer, the cells were incubated in DNA Labeling Solution (reaction buffer, TdT Enzyme, and FITC dUTP) for 60 min. at 37°C. After labelling, the cells were washed twice with rinse buffer. The cells were incubated with 200 µg/ml RNase A and 5 µg/ml PI for an additional 30 min at room temperature. […] was measured with an Accuri C6 flow cytometer.

MV-4-11 xenograft = assay: MV-4-11 mouse tumor xenograft; type: in vivo, BALB/c nu/nu mice
Description: MV-4-11 cells were inoculated subcutaneously in the flank of female BALB/c nu/nu (athymic nude) mice (5 × 10^6 cells per mouse). […] The drug or the control PBS was administered daily for a duration of 21 days. Tumor sizes were measured twice a week for 21 days, and the tumor volumes were calculated with the following formula: V (volume) = X (length) × D (width)^2/2. After 21 days, the mice were sacrificed, and the tumor weights were measured.

K562 cells = assay: Cell viability / growth inhibition (EZ-Cytox), K562; type: cell-based; conditions: Homo sapiens, Table 2, 72 h
Description: (§1) MV-4-11 human acute myeloid leukemia cells were purchased from the American Type Culture Collection (ATCC, Rockville, MD, USA, CRL-9591), and the cells were cultured in IMDM medium (Sigma Co., St. Louis, MO, USA) supplemented with 10% fetal bovine serum, 1% penicillin/streptomycin and 4 mM L-glutamine (Life Technology, Grand Island, NY). Jurkat (human acute T lymphocytic leukemia, ATCC TIB-152) and K562 (human chronic myelogenous leukemia, ATCC CCL-243) cells were cultured in RPMI-1640 (Sigma Co.), and MCF7 (human breast adenocarcinoma, ATCC HTB-22) and PC-3 (human prostate adenocarcinoma, ATCC CRL-1435) cells were cultured in DMEM (Sigma Co.) medium supplemented with 10% fetal bovine serum and 1% penicillin/streptomycin. The cultured cells were incubated at 37°C with 5% CO2. Cell viability was assessed with a tetrazolium-based assay using the EZ-Cytox Cell Viability Assay kit (DaeilLab, Korea). Briefly, 2,000 ∼ 15,000 cells were plated in 96-well flat bottom plates in 100 µl of medium. The next day, the cells were treated with compounds along with dimethyl sulfoxide (DMSO, Fisher, Waltham, MA, USA) as a negative control. […] After incubation, the optical density (OD) was measured at a wavelength of 450 nm with a Victor multilabel reader (Perkin Elmer, Waltham, MA, USA). The IC50 was calculated with nonlinear regression using Prism version 5.01 (GraphPad, La Jolla, CA, USA).

MV-4-11 cells [2] = assay: Annexin V / propidium iodide flow cytometry (apoptosis); type: cell-based, human; conditions: 10 nM, 24 h
Description: For Annexin V staining, the Alexa Flour® 488 Annexin V/ Dead Cell Apoptosis Kit (ThermoFisher, USA) was used. Cells were seeded in 6-well plates (1 × 10^6 cells per well) and treated with compounds for 24 h. The cells were stained with Annexin V and propidium iodide (PI) according to the manufacturer’s instruction. Then, the cells were subjected to flow cytometry using an Accuri C6 flow cytometer (BD Bio-sciences, San Jose, CA, USA). The data were analyzed with the BD Accuri C6 software.

Jurkat cells = assay: Cell viability / growth inhibition (EZ-Cytox), Jurkat; type: cell-based; conditions: Homo sapiens, Table 2, 72 h
Description: as §1

FLT3 = molecular target: T1, FLT3 (Homo sapiens, UniProt P36888); assay: In vitro FLT3 kinase assay (HTRF); type: biochemical
T1 construct: Recombinant proteins containing the FLT3 kinase domain were purchased from Carna biosciences (Japan); purchased Carna biosciences (Japan)
T1 sequence (P36888 610-943 limits assumed): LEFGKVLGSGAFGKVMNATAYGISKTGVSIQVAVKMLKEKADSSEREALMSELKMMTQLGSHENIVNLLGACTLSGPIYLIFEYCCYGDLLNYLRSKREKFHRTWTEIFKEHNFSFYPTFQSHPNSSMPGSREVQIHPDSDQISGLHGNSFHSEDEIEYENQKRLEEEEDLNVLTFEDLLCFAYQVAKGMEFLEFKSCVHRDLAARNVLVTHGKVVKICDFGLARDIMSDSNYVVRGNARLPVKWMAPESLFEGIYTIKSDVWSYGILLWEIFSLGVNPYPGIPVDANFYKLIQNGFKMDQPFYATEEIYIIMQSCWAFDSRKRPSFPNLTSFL
Description: The inhibition of the FLT3 kinase activity was measured with homogeneous, time-resolved fluorescence (HTRF) assays. Recombinant proteins containing the FLT3 kinase domain were purchased from Carna biosciences (Japan). Optimal enzyme, ATP, and substrate concentrations were established with the HTRF KinEASE kit (Cisbio, France) according to the manufacturer’s instructions. The FLT3 enzymes were mixed with serially diluted compounds and peptide substrates in a kinase reaction buffer (50 mM HEPES (pH 7.0), 500 μM ATP, 0.1 mM sodium orthovanadate, 5 mM MgCl2, 1 mM DTT, 0.01% bovine serum albumin (BSA), and 0.02% NaN3). After the addition of the reagents for detection, the TR-FRET signal was measured with a Victor multilabel reader (Perkin Elmer, Waltham, MA, USA). […] JAK2, JAK3, cMET, and RET in vitro kinase assays were also carried out using the HTRF assay kit.

leukemic cells = assay: Differentiation of leukemic cells (Wright-Giemsa staining); type: cell-based; conditions: data not shown

For `COC(=O)c1ccc2c(c1)/C(=C1/Nc3ccccc3/C1=N\OCCN1CCNCC1)C(=O)N2.Cl.Cl` [LDD1937, methyl (2Z,3E)-2′-oxo-3-((2-(piperazin-1-yl)ethoxy)imino)-[2,3′-biindolinylidene]-5′-carboxylate dihydrochloride], the “TUNEL positive cell population” value (MV-4-11 cells [1]) was 32.1%, the tumor weight (MV-4-11 xenograft; 5 mg/kg intravenous daily, day 21, vs control) was “significant reduction” and the “tumor volume / tumor mass” value (MV-4-11 xenograft; 10 mg/kg intravenous daily for 21 days) was “the tumor disappeared from day 3; also recorded: completely disappear from day 3”. The body weight (MV-4-11 xenograft; 5 and 10 mg/kg intravenous daily, administration period, between groups) was “no significant difference in body weight”, the “tumor volume and weight” value (MV-4-11 xenograft; 5 and 10 mg/kg intravenous, vs control) was “significantly reduced” and the GI50 (K562 cells) was 1210 ± 330 nM. The “cells in upper right quadrant (Annexin V+ and PI+, late apoptotic)” value (MV-4-11 cells [2]) was 24.8%, the GI50 (Jurkat cells) was 1440 ± 290 nM and the IC50 (FLT3; Table 1, mean ± S.D., read-out: IC50 FLT3) was 3 ± 0.525 nM. For the same compound, the IC50 (FLT3; recombinant FLT3, HTRF, read-out: IC50 FLT3 kinase activity) was 3 ± 0.53 nM and the “differentiated cells (Wright-Giemsa staining)” value (leukemic cells) was “differentiated cells were not observed”.
